From article PMC5829162, “Rational Design, Synthesis and Biological Evaluation of Pyrimidine-4,6-diamine derivatives as Type-II inhibitors of FLT3 Selective Against c-KIT” (Scientific Reports, 2018)

Target: T1, FLT3 kinase (Homo sapiens, UniProt P36888)
T1 construct: purchased Invitrogen
T1 sequence (P36888 27-993): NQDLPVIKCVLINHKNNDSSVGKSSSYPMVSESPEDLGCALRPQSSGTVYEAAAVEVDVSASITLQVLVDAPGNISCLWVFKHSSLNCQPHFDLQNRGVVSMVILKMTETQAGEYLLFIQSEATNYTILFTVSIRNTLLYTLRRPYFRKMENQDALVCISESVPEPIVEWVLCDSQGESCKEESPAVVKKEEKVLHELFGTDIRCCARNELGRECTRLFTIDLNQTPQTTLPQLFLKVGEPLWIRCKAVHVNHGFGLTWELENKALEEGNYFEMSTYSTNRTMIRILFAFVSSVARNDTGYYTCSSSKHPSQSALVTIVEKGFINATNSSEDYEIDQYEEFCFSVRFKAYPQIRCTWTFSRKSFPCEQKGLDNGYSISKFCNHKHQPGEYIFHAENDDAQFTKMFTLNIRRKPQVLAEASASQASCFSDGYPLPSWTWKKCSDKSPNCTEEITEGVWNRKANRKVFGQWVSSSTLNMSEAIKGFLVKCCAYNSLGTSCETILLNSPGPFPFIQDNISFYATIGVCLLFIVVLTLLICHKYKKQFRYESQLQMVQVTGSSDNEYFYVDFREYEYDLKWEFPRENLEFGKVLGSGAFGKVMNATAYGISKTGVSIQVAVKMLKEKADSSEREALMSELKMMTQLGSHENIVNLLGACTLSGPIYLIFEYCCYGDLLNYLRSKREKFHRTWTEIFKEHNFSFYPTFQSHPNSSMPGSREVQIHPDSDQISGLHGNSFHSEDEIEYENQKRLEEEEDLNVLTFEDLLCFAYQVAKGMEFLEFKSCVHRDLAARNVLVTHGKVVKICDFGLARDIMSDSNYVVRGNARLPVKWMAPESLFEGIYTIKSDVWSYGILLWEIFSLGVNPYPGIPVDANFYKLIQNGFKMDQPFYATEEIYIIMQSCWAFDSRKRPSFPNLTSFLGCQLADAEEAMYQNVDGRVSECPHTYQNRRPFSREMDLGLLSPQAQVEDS
Assay: Mechanism of inhibition (pre-incubation time and ATP concentration), FLT3
Assay type: biochemical
Procedure: Compound 13a was pre-incubated with the FLT3 kinase at 1, 3, 5, 10, 20, 30, 50, and 90 minutes. After the pre-incubation, IC50 values at each incubation interval was determined according to the procedure outlined in section 4.3. In a separate experiment, compound 13a was pre-incubated with the FLT3 kinase for 60 minutes. […] To determine IC50 values at each concentration of ATP, the same procedure was followed as outlined in section S10.
S10. Biochemical Inhibition Assay:1,2 Kinase activity was measured in a microfluidics assay that monitors the separation of a phosphorylated product from substrate. The assay was run using a 12-sipper chip on a Caliper EZ Reader II (PerkinElmer®, Walthman, USA) with separation buffer (100 mM HEPES, 10 mM EDTA, 0.015% Brij-35, 0.1% CR-3 [PerkinElmer®, Walthman, USA]). In 96-well polypropylene plates (Greiner, Frickenhausen, Germany) compound stocks (20 mM in DMSO) were diluted into kinase buffer (50 mM HEPES, 0.075% […]
dilutions (2 mM–6.32 nM). After, 1 μL was transferred into a 384-well polypropylene assay plate (Greiner, Frickenhausen, Germany). The FLT3 enzyme (Invitrogen™, Grand Island, USA) was diluted in kinase buffer to a concentration of 2 nM and 5 µL of the enzyme mixture was transferred to the assay plate. The inhibitors/FLT3 enzyme were incubated for 60 minutes with minor shaking. A substrate mix was prepared containing ATP (Ambresco®, Solon, USA) and 5FAM tagged FLT3 peptide (peptide #22, 5’ FAM-EPLYWSFPA, PerkinElmer®, Walthman, USA) dissolved in kinase buffer, and 5 µL of the substrate mix was added to the assay plate.
Running concentrations were as follows: ATP (190 µM), peptide (1.5 µM), compound 12-point ½log dilutions (0.2 mM–0.632 nM). For positive control, no inhibitor was added. For negative control, no enzyme was added. For running control, quizartinib was utilized. The plate was run until 10-20% conversion based on the positive control wells. The following separation conditions were utilized: upstream voltage -500V; downstream voltage, -1900V; chip pressure - 0.8. Percent inhibition was measured for each well comparing starting peptide to phosphorylated product peaks relative to the baseline. Dose response curves, spanning the IC50 dose, were generated in GraphPad Prisim 6 and fit to an exponential one-phase decay line and IC50 values were obtained from the half-life value of the curve. IC50 values were generated in duplicate and error was calculated from the standard deviation between values.
S11. Mechanism of Inhibition Procedure: Compound 13a was pre-incubated with the FLT3 kinase at 1, 3, 5, 10, 20, 30, 50, and 90 minutes. After the pre -incubation, IC50 values at each incubation interval was determined according to the procedure outlined in section 4.3. […]

change of FLT3 IC50 from no incubation to a 90-minute pre-incubation (p < 0.05): statistically significant decrease | pre-incubation required to reach maximal inhibition of the FLT3 kinase (pre-incubation 1-90 minutes): approximately 60 minutes
Compound: Cn1nc(C(C)(C)C)cc1NC(=O)Cc1ccc(Nc2cc(Nc3ccc(S(C)(=O)=O)cc3)ncn2)cc1 [13a, 2-(4-(6-(4-(Methylsulfonyl)phenylamino)pyrimidin-4-ylamino)phenyl)-N-(3-tert-butyl-1-methyl-1H-pyrazol-5-yl)acetamide]
effect of an increase in ATP concentration on FLT3 IC50 (5-160 µM ATP, 60 minutes pre-incubation, p > 0.05): did not cause a statistically significant increase | mechanism of inhibition (from pre-incubation and ATP variation studies): non-competitive, Type-II kinase inhibitor
